{
  "source": "ChEMBL document CHEMBL1141502",
  "about": "“Synthesis of hybrid acetogenins, alpha,beta-unsaturated-gamma-lactone-free nitrogen-containing heterocyclic analogues, and their cytotoxicity against human cancer cell lines” (2008)",
  "format_in_all_cases": "functional",
  "key": {"[1]": {"experiment": "Antiproliferative activity against human HBC4 cells by sulforhodamine B assay relative to control"}, "NCI-H522": {"tested_on": "NCI-H522", "experiment": "Antiproliferative activity against human NCI-H522 cells by sulforhodamine B assay relative to control"}, "MKN-28": {"tested_on": "MKN-28", "experiment": "Antiproliferative activity against human MKN28 cells by sulforhodamine B assay relative to control"}, "SNB-75": {"tested_on": "SNB-75", "experiment": "Antiproliferative activity against human SNB75 cells by sulforhodamine B assay relative to control"}, "HCT-15": {"tested_on": "HCT-15", "experiment": "Antiproliferative activity against human HCT15 cells by sulforhodamine B assay relative to control"}, "NCI-H226": {"tested_on": "NCI-H226", "experiment": "Antiproliferative activity against human NCI-H226 cells by sulforhodamine B assay relative to control"}, "[2]": {"experiment": "Antiproliferative activity against human OVACR3 cells by sulforhodamine B assay relative to control"}, "ACHN": {"tested_on": "ACHN", "experiment": "Antiproliferative activity against human ACHN cells by sulforhodamine B assay relative to control"}, "A549": {"tested_on": "A549", "experiment": "Antiproliferative activity against human A549 cells by sulforhodamine B assay relative to control"}, "MCF7": {"tested_on": "MCF7", "experiment": "Antiproliferative activity against human MCF7 cells by sulforhodamine B assay relative to control"}, "MKN-74": {"tested_on": "MKN-74", "experiment": "Antiproliferative activity against human MKN74 cells by sulforhodamine B assay relative to control"}, "[3]": {"experiment": "Antiproliferative activity against human OVACR5 cells by sulforhodamine B assay relative to control"}, "[4]": {"experiment": "Antiproliferative activity against human MKN1 cells by sulforhodamine B assay relative to control", "details": "MKN-1"}, "HCT-116": {"tested_on": "HCT-116", "experiment": "Antiproliferative activity against human HCT116 cells by sulforhodamine B assay relative to control"}, "DU-145": {"tested_on": "DU-145", "experiment": "Antiproliferative activity against human DU145 cells by sulforhodamine B assay relative to control"}, "SF-539": {"tested_on": "SF-539", "experiment": "Antiproliferative activity against human SF539 cells by sulforhodamine B assay relative to control"}, "SF-268": {"tested_on": "SF-268", "experiment": "Antiproliferative activity against human SF268 cell by sulforhodamine B assay relative to control"}, "MDA-MB-231": {"tested_on": "MDA-MB-231", "experiment": "Antiproliferative activity against human MDA-MB-231 cells by sulforhodamine B assay relative to control"}, "LOX IMVI": {"tested_on": "LOX IMVI", "experiment": "Antiproliferative activity against human LOX IMVI cells by sulforhodamine B assay relative to control"}, "St-4": {"tested_on": "St-4", "experiment": "Antiproliferative activity against human St4 cells by sulforhodamine B assay relative to control"}, "DMS-114": {"tested_on": "DMS-114", "experiment": "Antiproliferative activity against human DMS114 cells by sulforhodamine B assay relative to control"}, "SK-OV-3": {"tested_on": "SK-OV-3", "experiment": "Antiproliferative activity against human SKOV3 cells by sulforhodamine B assay relative to control"}, "MKN-45": {"tested_on": "MKN-45", "experiment": "Antiproliferative activity against human MKN45 cells by sulforhodamine B assay relative to control"}, "[5]": {"experiment": "Antiproliferative activity against human HBC5 cells by sulforhodamine B assay relative to control"}, "HT-29": {"tested_on": "HT-29", "experiment": "Antiproliferative activity against human HT29 cells by sulforhodamine B assay relative to control"}, "SF-295": {"tested_on": "SF-295", "experiment": "Antiproliferative activity against human SF295 cells by sulforhodamine B assay relative to control"}, "NCI-H23": {"tested_on": "NCI-H23", "experiment": "Antiproliferative activity against human NCI-H23 cells by sulforhodamine B assay relative to control"}, "MKN-7": {"tested_on": "MKN-7", "experiment": "Antiproliferative activity against human MKN7 cells by sulforhodamine B assay relative to control"}, "DMS-273": {"tested_on": "DMS-273", "experiment": "Antiproliferative activity against human DMS273 cells by sulforhodamine B assay relative to control"}, "[6]": {"experiment": "Antiproliferative activity against human OVACR8 cells by sulforhodamine B assay relative to control"}, "NCI-H460": {"tested_on": "NCI-H460", "experiment": "Antiproliferative activity against human NCI-H460 cells by sulforhodamine B assay relative to control"}, "KM12": {"tested_on": "KM12", "experiment": "Antiproliferative activity against human KM12 cells by sulforhodamine B assay relative to control"}, "SNB-78": {"tested_on": "SNB-78", "experiment": "Antiproliferative activity against human SNB78 cells by sulforhodamine B assay relative to control"}, "[7]": {"experiment": "Antiproliferative activity against human BSY1 cells by sulforhodamine B assay relative to control", "details": "BSY-1"}, "PC-3": {"tested_on": "PC-3", "experiment": "Antiproliferative activity against human PC3 cells by sulforhodamine B assay relative to control"}, "[8]": {"experiment": "Antiproliferative activity against human OVACR4 cells by sulforhodamine B assay relative to control"}, "U-251": {"tested_on": "U-251", "experiment": "Antiproliferative activity against human U251 cells by sulforhodamine B assay relative to control"}, "[9]": {"experiment": "Antiproliferative activity against human RXF631L cells by sulforhodamine B assay relative to control", "details": "RXF 631"}, "HCC 2998": {"tested_on": "HCC 2998", "experiment": "Antiproliferative activity against human HCC2998 cells by sulforhodamine B assay relative to control"}},
  "data": [
    {"smiles": "CCCCCCCCCCCC[C@@H](O)[C@H]1CC[C@H]([C@H](O)CCCCCCCCCCCCc2cnn(C)c2)O1", "values": [
      {"measurement": "GI50", "setting": "[1]", "value": "> 100", "unit": "µM"},
      {"measurement": "GI50", "setting": "NCI-H522", "value": 12, "unit": "µM"},
      {"measurement": "GI50", "setting": "MKN-28", "value": 19, "unit": "µM"},
      {"measurement": "GI50", "setting": "SNB-75", "value": 23, "unit": "µM"},
      {"measurement": "GI50", "setting": "HCT-15", "value": "> 100", "unit": "µM"},
      {"measurement": "GI50", "setting": "NCI-H226", "value": 56, "unit": "µM"},
      {"measurement": "GI50", "setting": "[2]", "value": "> 100", "unit": "µM"},
      {"measurement": "GI50", "setting": "ACHN", "value": "> 100", "unit": "µM"},
      {"measurement": "GI50", "setting": "A549", "value": "> 100", "unit": "µM"},
      {"measurement": "GI50", "setting": "MCF7", "value": "> 100", "unit": "µM"},
      {"measurement": "GI50", "setting": "MKN-74", "value": "> 100", "unit": "µM"},
      {"measurement": "GI50", "setting": "[3]", "value": "> 100", "unit": "µM"},
      {"measurement": "GI50", "setting": "[4]", "value": "> 100", "unit": "µM"},
      {"measurement": "GI50", "setting": "HCT-116", "value": 70, "unit": "µM"},
      {"measurement": "GI50", "setting": "DU-145", "value": "> 100", "unit": "µM"},
      {"measurement": "GI50", "setting": "SF-539", "value": 37, "unit": "µM"},
      {"measurement": "GI50", "setting": "SF-268", "value": "> 100", "unit": "µM"},
      {"measurement": "GI50", "setting": "MDA-MB-231", "value": "> 100", "unit": "µM"},
      {"measurement": "GI50", "setting": "LOX IMVI", "value": 9.5, "unit": "µM"},
      {"measurement": "GI50", "setting": "St-4", "value": "> 100", "unit": "µM"},
      {"measurement": "GI50", "setting": "DMS-114", "value": 2.1, "unit": "µM"},
      {"measurement": "GI50", "setting": "SK-OV-3", "value": "> 100", "unit": "µM"},
      {"measurement": "GI50", "setting": "MKN-45", "value": "> 100", "unit": "µM"},
      {"measurement": "GI50", "setting": "[5]", "value": "> 100", "unit": "µM"},
      {"measurement": "GI50", "setting": "HT-29", "value": "> 100", "unit": "µM"},
      {"measurement": "GI50", "setting": "SF-295", "value": 24, "unit": "µM"},
      {"measurement": "GI50", "setting": "NCI-H23", "value": 13, "unit": "µM"},
      {"measurement": "GI50", "setting": "MKN-7", "value": 5.4, "unit": "µM"},
      {"measurement": "GI50", "setting": "DMS-273", "value": "> 100", "unit": "µM"},
      {"measurement": "GI50", "setting": "[6]", "value": "> 100", "unit": "µM"},
      {"measurement": "GI50", "setting": "NCI-H460", "value": "> 100", "unit": "µM"},
      {"measurement": "GI50", "setting": "KM12", "value": "> 100", "unit": "µM"},
      {"measurement": "GI50", "setting": "SNB-78", "value": 81, "unit": "µM"},
      {"measurement": "GI50", "setting": "[7]", "value": "> 100", "unit": "µM"},
      {"measurement": "GI50", "setting": "PC-3", "value": "> 100", "unit": "µM"},
      {"measurement": "GI50", "setting": "[8]", "value": "> 100", "unit": "µM"},
      {"measurement": "GI50", "setting": "U-251", "value": "> 100", "unit": "µM"},
      {"measurement": "GI50", "setting": "[9]", "value": "> 100", "unit": "µM"},
      {"measurement": "GI50", "setting": "HCC 2998", "value": "> 100", "unit": "µM"}
    ]}
  ]
}
